Literature values as cited in patent US20190380992A1 (Biogen MA Inc., priority 2014, published 2019).
Structures can show the parent of a compound that is named as a salt.

Legend:
[1] = tested on: multiple sclerosis patients; conditions: compared with placebo after two years of treatment
[2] = tested on: multiple sclerosis patients; conditions: second phase 3 study; glatiramer acetate as active reference
patients initiating DMF = conditions: DEFINE and CONFIRM studies

## COC(=O)/C=C/C(=O)OC [DMF, dimethyl fumarate]
[1]
  accumulation of disability progression: significantly reduced
  clinical relapses: significantly reduced
  lesion number and volume: significantly reduced
[2]
  support of the DEFINE findings: findings were supported
Patients initiating DMF
  safety profile: acceptable safety profile
